Data taken from ChEMBL document CHEMBL1629661, “Carbapenem resistance among Pseudomonas aeruginosa strains from India: evidence for nationwide endemicity of multiple metallo-beta-lactamase clones (VIM-2, -5, -6, and -11 and the newly characterized VIM-18)” (2009).
Converted amounts (≈) assume the structure as drawn.

How the values were obtained:
Type in all cases: functional
Escherichia coli [1] = assay: Antimicrobial activity against Escherichia coli harboring plasmid pPCRScript by Etest
Pseudomonas aeruginosa [2] = assay: Antimicrobial activity against Pseudomonas aeruginosa isolate 243-31C expressing beta-lactamase VIM-18 isolated from sputum of patient by broth microdilution method
Escherichia coli [3] = assay: Antimicrobial activity against Escherichia coli harboring beta-lactamase VIM-2 by Etest
Escherichia coli [4] = assay: Antimicrobial activity against Escherichia coli harboring beta-lactamase VIM-18 by Etest
Pseudomonas aeruginosa [5] = assay: Antimicrobial activity against Pseudomonas aeruginosa isolate 243-31C expressing beta-lactamase VIM-18 isolated from sputum of patient by broth microdilution method in presence of beta-lactamase inhibitor Tazobactam
Escherichia coli [6] = assay: Ratio of MIC for Escherichia coli harboring beta-lactamase VIM-2 to MIC for Escherichia coli harboring beta-lactamase VIM-18

Molecule	MIC (Escherichia coli [1])	MIC (Pseudomonas aeruginosa [2])	MIC (Escherichia coli [3])	MIC (Escherichia coli [4])	MIC (Pseudomonas aeruginosa [5])	Ratio (Escherichia coli [6])
CO/N=C(\C(=O)N[C@@H]1C(=O)N2C(C(=O)[O-])=C(C[N+]3(C)CCCC3)CS[C@H]12)c1csc(N)n1	0.032 µg/mL (≈ 0.0666 µM)	> 16 µg/mL	0.5 µg/mL (≈ 1.04 µM)			
C[C@H]1[C@H](NC(=O)/C(=N\OC(C)(C)C(=O)O)c2csc(N)n2)C(=O)N1S(=O)(=O)O [AZTREONAM]		16 µg/mL (≈ 36.7 µM)	0.032 µg/mL (≈ 0.0735 µM)	0.032 µg/mL (≈ 0.0735 µM)		
C[C@@H](O)[C@H]1C(=O)N2C(C(=O)O)=C(S[C@@H]3CN[C@H](CNS(N)(=O)=O)C3)[C@H](C)[C@H]12 [DORIPENEM]		4 µg/mL (≈ 9.51 µM)				
CCN1CCN(C(=O)N[C@@H](C(=O)N[C@@H]2C(=O)N3[C@@H]2SC(C)(C)[C@@H]3C(=O)O)c2ccccc2)C(=O)C1=O [PIPERACILLIN]	2 µg/mL (≈ 3.86 µM)	> 64 µg/mL	4 µg/mL (≈ 7.73 µM)	8 µg/mL (≈ 15.5 µM)	> 64 µg/mL	
Cc1nnc(SCC2=C(C(=O)O)N3C(=O)[C@@H](NC(=O)Cn4cnnn4)[C@H]3SC2)s1 [CEFAZOLIN]	2 µg/mL (≈ 4.4 µM)	> 16 µg/mL	> 256 µg/mL	32 µg/mL (≈ 70.4 µM)		4
CN(C)[C@@H]1C(O)=C(C(N)=O)C(=O)[C@@]2(O)C(O)=C3C(=O)c4c(O)cccc4[C@@](C)(O)[C@H]3C[C@@H]12 [TETRACYCLINE]		> 8 µg/mL				
CC1(C)S[C@@H]2[C@H](NC(=O)[C@H](N)c3ccccc3)C(=O)N2[C@H]1C(=O)O [AMPICILLIN]	4 µg/mL (≈ 11.4 µM)	> 16 µg/mL	> 256 µg/mL	64 µg/mL (≈ 183 µM)		
POLYMYXIN B		1 µg/mL				
C[C@@H](O)[C@H]1C(=O)N2C(C(=O)O)=C(S[C@@H]3CN[C@H](C(=O)N(C)C)C3)[C@H](C)[C@H]12 [MEROPENEM]	0.032 µg/mL (≈ 0.0834 µM)	8 µg/mL (≈ 20.9 µM)	0.125 µg/mL (≈ 0.326 µM)	0.064 µg/mL (≈ 0.167 µM)		
CO[C@@]1(NC(=O)Cc2cccs2)C(=O)N2C(C(=O)O)=C(COC(N)=O)CS[C@@H]21 [CEFOXITIN]	4 µg/mL (≈ 9.36 µM)	> 16 µg/mL	> 256 µg/mL	8 µg/mL (≈ 18.7 µM)		>6
NC[C@H]1O[C@H](O[C@H]2[C@H](O)[C@@H](O[C@H]3O[C@H](CO)[C@@H](O)[C@H](N)[C@H]3O)[C@H](N)C[C@@H]2N)[C@H](N)C[C@@H]1O [TOBRAMYCIN]		> 16 µg/mL				
CC(C)(O/N=C(\C(=O)N[C@@H]1C(=O)N2C(C(=O)[O-])=C(C[n+]3ccccc3)CS[C@H]12)c1csc(N)n1)C(=O)O [CEFTAZIDIME]	0.125 µg/mL (≈ 0.229 µM)	> 16 µg/mL	4 µg/mL (≈ 7.32 µM)	16 µg/mL (≈ 29.3 µM)		
C[C@@H](O)[C@H]1C(=O)N2C(C(=O)O)=C(SCCNC=N)C[C@H]12 [IMIPENEM ANHYDROUS]		8 µg/mL (≈ 26.7 µM)	0.5 µg/mL (≈ 1.67 µM)			
NCC[C@H](O)C(=O)N[C@@H]1C[C@H](N)[C@@H](O[C@H]2O[C@H](CN)[C@@H](O)[C@H](O)[C@H]2O)[C@H](O)[C@H]1O[C@H]1O[C@H](CO)[C@@H](O)[C@H](N)[C@H]1O [AMIKACIN]		> 32 µg/mL				
O=C(O)c1cn(C2CC2)c2cc(N3CCNCC3)c(F)cc2c1=O [CIPROFLOXACIN]		0.06 µg/mL (≈ 0.181 µM)				
GENTAMICIN		8 µg/mL				
CO/N=C(\C(=O)N[C@@H]1C(=O)N2C(C(=O)O)=C(COC(C)=O)CS[C@H]12)c1csc(N)n1 [CEFOTAXIME]	0.064 µg/mL (≈ 0.141 µM)		4 µg/mL (≈ 8.78 µM)	2 µg/mL (≈ 4.39 µM)		
CO/N=C(\C(=O)N[C@@H]1C(=O)N2C(C(=O)O)=C(CSc3nc(=O)c(O)nn3C)CS[C@H]12)c1csc(N)n1 [CEFTRIAXONE]		> 32 µg/mL				
C[C@@H](O)[C@H]1C(=O)N2C(C(=O)O)=C(S[C@@H]3CN[C@H](C(=O)Nc4cccc(C(=O)O)c4)C3)[C@H](C)[C@H]12	0.006 µg/mL (≈ 0.0126 µM)	> 8 µg/mL	0.25 µg/mL (≈ 0.526 µM)	0.016 µg/mL (≈ 0.0336 µM)		9
